Data on six molecules can be found in publication PMC7932521, “2-aminobenzimidazoles for leishmaniasis: From initial hit discovery to in vivo profiling” (PLoS Neglected Tropical Diseases, 2021).

Data set [1] is described as follows: Mouse liver microsomal stability. The data set is classed as in vitro ADME. The procedure, abridged:
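Test compound at 0.5 μM incubated with 0.25 mg/mL human (200-donor pool) or CD1 mouse liver microsomes, pH 7.4, 37°C, started with […]; sampled 0–30 min. LC-MS/MS quantitation against internal standard; t1/2 and Clint (μL/min/mg) from non-linear regression of % remaining versus time.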

For a further data set, the target named is T1, Opioid mu (Homo sapiens, UniProt P35372).
T1 construct: expressed in transfected cells; host or cells: CHO
In words: Bioprofiling 6pt Ag Opioid mu CHO. Format: cell-based. The settings on record: agonist readout. As for the experimental part: (§1) The compounds were evaluated across a panel of 20 liability targets (37 functional assays) which included functional cell-based GPCRs and ion channels in both agonist and antagonist readout, measuring calcium flux and biochemical functional assays for nuclear hormone receptors and phosphodiesterases using TR-FRET format, in a 6 point 1:3 dilution dose series (maximum final concentration of 10 μM).

The target of the next data set is T2, Beta1 (Homo sapiens, UniProt P08588).
T2 construct: expressed in transfected cells; host or cells: CHO
In words: Bioprofiling 6pt Ag Beta1 CHO. The data set is classed as cell-based. The following applies: agonist readout. As for the experimental part:
as §1

Another data set concerns the target T3, ETA (Homo sapiens, UniProt P25101).
T3 construct: expressed in transfected cells; host or cells: CHO
T3 sequence (P25101 21-427): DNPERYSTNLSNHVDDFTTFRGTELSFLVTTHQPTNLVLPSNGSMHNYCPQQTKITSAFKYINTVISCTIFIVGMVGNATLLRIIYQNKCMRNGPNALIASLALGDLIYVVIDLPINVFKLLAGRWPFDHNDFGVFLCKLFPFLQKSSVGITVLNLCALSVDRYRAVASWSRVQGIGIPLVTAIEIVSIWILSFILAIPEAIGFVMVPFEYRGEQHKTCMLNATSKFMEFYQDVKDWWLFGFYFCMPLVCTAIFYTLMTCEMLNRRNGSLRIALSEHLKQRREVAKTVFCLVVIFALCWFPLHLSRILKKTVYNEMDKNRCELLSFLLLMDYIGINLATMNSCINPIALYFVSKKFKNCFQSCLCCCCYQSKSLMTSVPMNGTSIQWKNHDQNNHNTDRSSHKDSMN
In words: Bioprofiling 6pt Ag ETA CHO. The following applies: agonist readout. The data set is classed as cell-based. As for the experimental part: as §1

Another data set can be described thus: Plasma stability. The data set is classed as in vitro ADME, mouse. The settings on record: for Mouse plasma stability: % remaining after 6h; for Plasma Stability: S1 Data. As for the experimental part:
Pooled plasma was thawed in a water bath at 37°C and centrifuged at 4,000 rpm for 5 min to remove any clots. Plasma solution was prepared by adding PBS (pH 7.4) in a 1:1 ratio. It was not necessary to adjust the pH of the final plasma solution. Plasma:PBS and test compound solutions were added to the incubation plate at a final concentration of 2 μM. The plate was incubated in a shaker at 37°C and 50 rpm. Samples were removed (25 μL) from each well of the incubation plate at multiple timepoints and added to a plate containing 100 μL of quench solution (200 ng/mL tolbutamide in 50% acetonitrile/methanol) to precipitate protein. The quenched aliquots were centrifuged at 4000 rpm for 10 min at 5°C. An aliquot of supernatant was transferred from each well to a plate for analysis by LC-MS/MS. Results were calculated as the percentage of remaining parent compound in plasma after incubation.

The next data set concerns P2Y. In words: Bioprofiling 6pt Antag P2Y CHO. The following applies: antagonist readout vs ATP; read-out: Bioprofiling 6pt Antag P2Y CHO Hamster IC50. Format: cell-based. As to the method: as §1
In a further data set the target is T4, Alpha2A (Homo sapiens, UniProt P08913).
T4 construct: expressed in transfected cells; host or cells: CHO
T4 sequence (P08913 1-465): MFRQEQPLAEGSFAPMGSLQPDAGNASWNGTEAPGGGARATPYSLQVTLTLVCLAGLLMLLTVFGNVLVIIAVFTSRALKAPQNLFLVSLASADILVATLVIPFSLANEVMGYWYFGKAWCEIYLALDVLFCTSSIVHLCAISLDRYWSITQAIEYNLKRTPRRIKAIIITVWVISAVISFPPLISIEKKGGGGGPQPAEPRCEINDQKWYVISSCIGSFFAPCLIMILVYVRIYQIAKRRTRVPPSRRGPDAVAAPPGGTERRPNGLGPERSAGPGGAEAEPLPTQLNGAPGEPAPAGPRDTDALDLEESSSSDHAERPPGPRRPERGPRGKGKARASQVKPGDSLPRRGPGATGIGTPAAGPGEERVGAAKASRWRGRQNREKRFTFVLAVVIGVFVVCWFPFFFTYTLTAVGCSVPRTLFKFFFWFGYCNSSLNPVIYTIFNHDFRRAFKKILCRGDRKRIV
In words: Bioprofiling 6pt Ag Alpha2A CHO. The data set is classed as cell-based. The following applies: agonist readout. As for the experimental part:
as §1

A further data set deals with T5, 5-HT2B (Homo sapiens, UniProt P41595).
T5 construct: expressed in transfected cells; host or cells: CHO
In words: Bioprofiling 6pt Antag 5-HT2B CHO. The data set is classed as cell-based. The settings on record: antagonist readout vs Serotonin (5-HT). As for the experimental part:
as §1

In the next data set the target is T6, Alpha1A (Homo sapiens, UniProt P35348).
T6 construct: expressed in transfected cells; host or cells: CHO
T6 sequence (P35348 1-466): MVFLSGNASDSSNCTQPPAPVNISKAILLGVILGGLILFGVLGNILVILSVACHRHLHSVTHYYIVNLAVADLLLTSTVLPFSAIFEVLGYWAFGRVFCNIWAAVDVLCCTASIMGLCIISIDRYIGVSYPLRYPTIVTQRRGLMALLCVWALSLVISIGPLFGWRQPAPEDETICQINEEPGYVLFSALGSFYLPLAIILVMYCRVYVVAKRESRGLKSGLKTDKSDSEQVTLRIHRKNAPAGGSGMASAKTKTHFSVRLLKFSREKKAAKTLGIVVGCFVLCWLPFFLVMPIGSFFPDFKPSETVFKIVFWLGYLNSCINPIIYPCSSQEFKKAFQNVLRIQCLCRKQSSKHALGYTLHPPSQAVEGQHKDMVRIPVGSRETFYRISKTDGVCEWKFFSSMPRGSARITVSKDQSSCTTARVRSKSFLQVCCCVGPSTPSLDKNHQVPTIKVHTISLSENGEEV
In words: Bioprofiling 6pt Ag Alpha1A CHO. The data set is classed as cell-based. The settings on record: agonist readout. As for the experimental part:
as §1

The mark [2] stands for this setting: mouse liver microsome intrinsic clearance.

pEC50, pIC50: −log10 of the molar value.

T1 sequence (P35372 whole entry): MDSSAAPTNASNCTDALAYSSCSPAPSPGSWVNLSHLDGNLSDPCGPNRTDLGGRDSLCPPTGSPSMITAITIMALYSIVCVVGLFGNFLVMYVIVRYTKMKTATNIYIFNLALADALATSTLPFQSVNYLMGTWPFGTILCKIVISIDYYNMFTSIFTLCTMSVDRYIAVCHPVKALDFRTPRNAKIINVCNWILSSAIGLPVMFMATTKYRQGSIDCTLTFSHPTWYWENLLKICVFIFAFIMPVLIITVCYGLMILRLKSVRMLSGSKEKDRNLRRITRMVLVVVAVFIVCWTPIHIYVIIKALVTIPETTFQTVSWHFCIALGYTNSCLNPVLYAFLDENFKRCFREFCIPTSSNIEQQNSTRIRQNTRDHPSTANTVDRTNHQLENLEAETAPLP
T5 sequence (P41595 whole entry): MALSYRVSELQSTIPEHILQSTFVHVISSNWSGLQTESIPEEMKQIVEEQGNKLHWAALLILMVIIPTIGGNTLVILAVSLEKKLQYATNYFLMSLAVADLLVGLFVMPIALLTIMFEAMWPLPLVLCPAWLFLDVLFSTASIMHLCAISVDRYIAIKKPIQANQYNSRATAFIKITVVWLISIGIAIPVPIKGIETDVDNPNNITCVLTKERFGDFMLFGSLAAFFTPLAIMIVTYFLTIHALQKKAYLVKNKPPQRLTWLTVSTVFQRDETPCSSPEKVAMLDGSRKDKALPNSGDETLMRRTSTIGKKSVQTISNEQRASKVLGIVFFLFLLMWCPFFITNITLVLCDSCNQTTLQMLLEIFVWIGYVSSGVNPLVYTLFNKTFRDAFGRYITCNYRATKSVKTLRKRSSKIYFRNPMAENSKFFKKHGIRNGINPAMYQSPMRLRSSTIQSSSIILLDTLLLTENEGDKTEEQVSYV
T2 sequence (P08588 whole entry): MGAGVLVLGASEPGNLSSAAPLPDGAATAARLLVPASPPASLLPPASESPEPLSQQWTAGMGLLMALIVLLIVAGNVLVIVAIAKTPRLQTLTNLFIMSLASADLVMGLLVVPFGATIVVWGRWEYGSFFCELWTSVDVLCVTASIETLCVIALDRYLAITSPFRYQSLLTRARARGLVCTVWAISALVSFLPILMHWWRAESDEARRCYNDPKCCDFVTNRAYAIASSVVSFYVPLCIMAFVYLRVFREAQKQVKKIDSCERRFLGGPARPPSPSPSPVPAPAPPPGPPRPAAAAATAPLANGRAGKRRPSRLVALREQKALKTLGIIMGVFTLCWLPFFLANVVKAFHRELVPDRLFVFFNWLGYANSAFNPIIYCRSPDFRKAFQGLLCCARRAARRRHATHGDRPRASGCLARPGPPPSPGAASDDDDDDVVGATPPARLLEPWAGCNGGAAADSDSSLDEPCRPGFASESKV

For the molecule `Cn1nccc1C(=O)Nc1nc2ccc(C#N)cc2n1CC(C)(C)C` [Compound 29, O=C(Nc1n(CC(C)(C)C)c(c2n1)cc(C#N)cc2)c3n(C)ncc3], the microsomal CLint at 0.5 μM in data set [1] (CD1, mouse, liver microsomes, pH 7.4, mouse liver microsome intrinsic clearance, read-out: MLM Clint) stood at 17 µL/min/mg. The pEC50 at Opioid mu, at Beta1, on ETA, on Alpha2A and on Alpha1A was below 5.00 throughout. The same molecule returned a Mouse plasma stability in the data set “Plasma stability” of 99.8%. Moreover, the “Plasma Stability” value in “Plasma stability” is 99.80%. Further, the pIC50 in the data set with P2Y and against 5-HT2B was below 5.00 in each case.

For `Cn1nc(C(F)(F)F)cc1C(=O)Nc1nc2ccc(C#N)cc2n1CC(F)(F)F` [Compound 39, O=C(c1cc(C(F)(F)F)nn1C)Nc2nc(ccc(C#N)c3)c3n2CC(F)(F)F], the “MLM CLint” value in data set [1] (setting [2]) was 28 µL/min/mg. Further, the pEC50 at Opioid mu, on Beta1, at ETA, on Alpha2A and at Alpha1A was below 5.00 each time. For the same molecule, the Mouse plasma stability in the data set “Plasma stability” is on record as 111%. Moreover, in “Plasma stability”, the “Plasma Stability” value came out at 111%. The pIC50 with P2Y and on 5-HT2B was below 5.00 each time.

On to `N#Cc1ccc2nc(NC(=O)c3ccnc(C(F)(F)F)c3)n(CC(F)(F)F)c2c1` [Compound 44, O=C(c1ccnc(C(F)(F)F)c1)Nc2nc(ccc(C#N)c3)c3n2CC(F)(F)F], for which the “MLM CLint” value in data set [1] (setting [2]) was 27 µL/min/mg. In addition, the pEC50 at Opioid mu, at Beta1, on ETA, on Alpha2A and at Alpha1A was below 5.00 throughout. The molecule also gave a Mouse plasma stability in the data set “Plasma stability” of 111%. Besides, the “Plasma Stability” value in “Plasma stability” was found to be 110.80%. Moreover, the pIC50 in the data set on P2Y and on 5-HT2B was below 5.00 each time.

`COc1ccc(C(=O)Nc2nc3ccc(C#N)cc3n2CC(F)(F)F)cn1` [Compound 43, O=C(c1ccc(OC)nc1)Nc2nc(ccc(C#N)c3)c3n2CC(F)(F)F]: the “MLM CLint” value in [1] (S1 Data) amounted to 170 µL/min/mg. For the same molecule, the pEC50 on Opioid mu, on Beta1, on ETA, at Alpha2A and on Alpha1A was below 5.00 throughout. In “Plasma stability”, the “Plasma Stability” value is listed as 92.20%. For the same molecule, the pIC50 in the data set on P2Y and against 5-HT2B was below 5.00 throughout.

Consider `N#Cc1ccc2nc(NC(=O)c3ccc(C(F)(F)F)nc3)n(CC(F)(F)F)c2c1` [Compound 45, O=C(c1ccc(C(F)(F)F)nc1)Nc2nc(ccc(C#N)c3)c3n2CC(F)(F)F], for which, in data set [1] (S1 Data), the “MLM CLint” value was determined as 18 µL/min/mg. Moreover, the negative-log EC50 (pEC50) at Opioid mu, at Beta1, at ETA, at Alpha2A and on Alpha1A was below 5.00 each time. Also, the “Plasma Stability” value in “Plasma stability” is 135%. The pIC50 in the data set on P2Y and at 5-HT2B was below 5.00 in each case.

Take `Cn1nccc1C(=O)Nc1nc2ccc(C#N)cc2n1CC(F)(F)F` [Compound 30, O=C(c1ccnn1C)Nc2nc(ccc(C#N)c3)c3n2CC(F)(F)F]: the “MLM CLint” value in data set [1] (setting [2]) amounted to 20 µL/min/mg. For the same molecule, the pEC50 at Opioid mu, at Beta1, at ETA, at Alpha2A and on Alpha1A was below 5.00 in each case. In the data set “Plasma stability”, this molecule displayed a Mouse plasma stability of 107%. Also, the “Plasma Stability” value in the data set “Plasma stability” was determined as 107%. Moreover, the pIC50 with P2Y and against 5-HT2B was below 5.00 throughout.
